In brackets after ≈: the same amount, converted by molar mass.
Legend:
Assay type in all cases: functional
Streptomyces lividans = assay: Antibacterial activity against Streptomyces lividans SBT18 assessed as inhibition zone at 10 ug incubated for 2 days by disc diffusion assay; conditions: SBT18, 48 h, time 2 day, read-out: IZ
Micrococcus luteus = assay: Antibacterial activity against Micrococcus luteus SCSIO ML01 by Mueller-Hinton broth microdilution method
Streptomyces albus = assay: Antibacterial activity against Streptomyces albus Del14 assessed as inhibition zone at 10 ug incubated for 2 days by disc diffusion assay; conditions: Del14, 48 h, time 2 day, read-out: IZ
Streptomyces coelicolor = assay: Antibacterial activity against Streptomyces coelicolor YF11 assessed as inhibition zone at 10 ug incubated for 2 days by disc diffusion assay; conditions: YF11, 48 h, time 2 day, read-out: IZ

| Structure (SMILES) | zone of inhibition at 10 µg/disc (Streptomyces lividans) [mm] | MIC (Micrococcus luteus) [µg/mL] | zone of inhibition at 10 µg/disc (Streptomyces albus) [mm] | zone of inhibition at 10 µg/disc (Streptomyces coelicolor) [mm] |
| --- | --- | --- | --- | --- |
| C/C=C\C=C\[C@@H]1O[C@](O)([C@H](CC)C(=O)NC/C=C/C=C(\C)[C@@H](OC)[C@@H](C)[C@H](O)[C@@H](O)\C=C/C=C/C=C/C=C(\C)C(=O)c2c(O)ccn(C)c2=O)[C@H](O)[C@H](O[C@H]2O[C@@H](C)[C@H](O[C@@H]3O[C@@H](C)[C@H](O)[C@@H](O)[C@H]3OC)[C@H](OC)[C@@H]2O)C1(C)C | 8 | 8 (≈ 7.17 µM) | 15 | 8 |
| C/C=C\C=C\[C@@H]1O[C@](O)([C@@H](CC)C(=O)NC/C=C/C=C(\C)[C@H](OC)[C@H](C)[C@@H]2O[C@H](/C=C/C=C/C=C(\C)C(=O)c3c(O)ccn(C)c3=O)[C@H](O)[C@H]2O)[C@H](O)[C@H](O[C@H]2O[C@@H](C)[C@H](O[C@@H]3O[C@@H](C)[C@H](O)[C@@H](O)[C@H]3OC)[C@H](OC)[C@@H]2O)C1(C)C | – | 8 (≈ 7.07 µM) | 15 | – |
| C/C=C\C=C\[C@@H]1O[C@](O)([C@H](CC)C(=O)NC/C=C/C=C(\C)[C@@H](OC)[C@@H](C)[C@H](O)[C@@H](O)/C=C/C=C/C=C/C=C(\C)C(=O)c2c(O)ccn(C)c2=O)[C@H](O)[C@H](O[C@H]2O[C@@H](C)[C@H](O[C@@H]3O[C@@H](C)[C@H](O)[C@@H](O)[C@H]3OC)[C@H](OC)[C@@H]2O)C1(C)C | – | 8 (≈ 7.17 µM) | 15 | – |
| C/C=C\C=C\[C@@H]1O[C@](O)([C@@H](CC)C(=O)NC/C=C/C=C(\C)[C@H](OC)[C@H](C)[C@@H]2O[C@H](/C=C/C=C/C=C(\C)C(=O)c3c(O)ccn(C)c3=O)[C@@H](O)[C@H]2O)[C@H](O)[C@H](O[C@H]2O[C@@H](C)[C@H](O[C@@H]3O[C@@H](C)[C@H](O)[C@@H](O)[C@H]3OC)[C@H](OC)[C@@H]2O)C1(C)C | – | 8 (≈ 7.07 µM) | 15 | – |
| C/C=C\C=C\[C@@H]1O[C@](O)([C@H](CC)C(=O)NC/C=C/C=C(\C)[C@@H](OC)[C@@H](C)[C@H](O)[C@@H](O)\C=C/C=C/C=C/C=C(\C)C(=O)c2c(O)ccn(C)c2=O)[C@H](O)[C@H](O)C1(C)C | 8 | 8 (≈ 10.1 µM) | 15 | 8 |

Source: ChEMBL document CHEMBL5215005, “Discovery of Efrotomycin Congeners and Heterologous Expression-Based Insights into the Self-Resistance Mechanism” (2022)
